These results are taken from publication PMC7468596, “Potent In Vitro α-Glucosidase and β-Secretase Inhibition of Amyrin-Type Triterpenoid Isolated from Datura metel Linnaeus (Angel's Trumpet) Fruits” (BioMed Research International, 2020).

In experiment [1] the target is T1, α-glucosidase (rat intestinal).
T1 construct: supernatant of rat intestinal acetone powder
Nature of the experiment: p-nitrophenyl-α-D-glucopyranoside hydrolysis, […] nm, crude intestinal enzyme. The class given is biochemical.

Experiment [2] deals with β-secretase (BACE1) (Homo sapiens, UniProt P56817). Nature of the experiment: BACE1 FRET enzyme assay, pH […]. The class given is biochemical.
Sequence of β-secretase (BACE1) (P56817 46-457): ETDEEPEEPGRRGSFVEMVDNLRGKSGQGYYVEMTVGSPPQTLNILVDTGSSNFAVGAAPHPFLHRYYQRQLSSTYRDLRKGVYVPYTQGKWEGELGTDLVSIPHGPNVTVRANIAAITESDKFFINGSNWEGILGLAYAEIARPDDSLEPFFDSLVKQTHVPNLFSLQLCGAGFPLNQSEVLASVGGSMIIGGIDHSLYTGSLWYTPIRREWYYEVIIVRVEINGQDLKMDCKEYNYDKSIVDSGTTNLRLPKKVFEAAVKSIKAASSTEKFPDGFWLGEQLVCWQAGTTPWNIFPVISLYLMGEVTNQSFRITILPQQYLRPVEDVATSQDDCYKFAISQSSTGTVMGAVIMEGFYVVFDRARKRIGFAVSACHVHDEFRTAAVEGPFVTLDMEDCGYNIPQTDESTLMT

Turning to `CC1(C)CC[C@]2(C)CC[C@]3(C)C(=CC[C@@H]4[C@@]5(C)CCC(=O)C(C)(C)[C@@H]5[C@H](O)C[C@]43C)[C@@H]2C1` [compound 1, daturaolone], the IC50 in experiment [1] was determined as 830.4 ± 2.01 µM; in experiment [2], 260.7 ± 1.87 µM.

For orientation: IC50 means the concentration needed to halve the response being measured. Low values mean inhibition by little substance, high ones a need for much substance.
